Data on three compounds can be found in US11713297B2, “Crystalline form of N-butyldeoxygalactonojirimycin” (IDORSIA PHARMACEUTICALS LTD, priority 2017, dated 2023).

Data set [1] in a line: Particle size distribution (PSD) by laser diffraction, wet dispersion. The note with it: crystalline form 1; average of at least five crystallization batches, each measured in triplicate. The class given is physicochemical. From the text: Particle size distributions are defined herein as D10, D50 and D90. D10, D50 and D90 represent the particle diameter corresponding to the respective percentage in volume (i.e. 10%, 50%, 90%) of a given sample which is below the indicated diameter. For example, a D50 from about 70 μm to about 150 μm means that 50% of the volume of a given sample has a diameter which is equal or below a diameter that is in the range between about 70 μm and about 150 μm. Particle size distributions may be determined using standard procedures such as laser diffraction.
Particle Size Distribution (PSD)
PSD measurements were performed by laser-diffraction using a wet dispersion method. Data were collected on a Mastersizer 2000 (Malvern) equipped with a dispersion unit Hydro 2000S in the size range from 0.020 μm to 2000.000 μm. Typically, about 100 mg sample in about 20 ml Tegiloxan 3 (silicon oil, CAS Nr. 9016-00-6) is dispersed in an ultrasonic bad for about 30 s and subsequently added to a prefilled with Tegiloxan 3 dispersion unit until obscuration of about 10% to about 30% is achieved. After a circulation time of 5 min, a sample measurement is performed. Reported particle size values (D10, D50 and D90) represent an average value of 3 measurements.
Particle size measurements of COMPOUND in crystalline form 1 as obtained in Examples 1, 2 and Reference Example 3 are performed using the method described herein. Each data point in Table 3 represents an average value obtained from at least five separate crystallization batches, each measured in triplicate.

A short description of data set [2]: Gravimetric vapour sorption (GVS) analysis, hygroscopicity. Type of data set: physicochemical. The note with it: crystalline form 1; 25° C.; mass change between 40% and 80% RH in first adsorption scan; European Pharmacopeia 8.0 classification. The procedure:
Gravimetric Vapour Sorption (GVS) Analysis
Measurements were performed on a multi sample instrument SPS-100n (Projekt Messtechnik, Ulm, Germany) operated in stepping mode at 25° C. The sample was allowed to equilibrate at 40% RH before starting a pre-defined humidity program (40-0-95-0-95-40% RH, steps of 5% ΔRH and with a maximal equilibration time of 24 hours per step were applied. About 20 to 30 mg of each sample was used. The hygroscopic classification is done according to the European Pharmacopeia 8.0, e.g., slightly hygroscopic: increase in mass is less than 2% and equal to or greater than 0.2% mass/mass; hygroscopic: increase in mass is less than 15% and equal to or greater than 2% mass/mass. The mass change between 40% relative humidity and 80% relative humidity in the first adsorption scan is considered.

Data set [3] has as its system plasma levels of metabolic substrates. The data set is described as follows: Phase Ib study in patients suffering from Fabry disease. Type of data set: in vivo. Conditions: on top of enzyme replacement therapy.
A short description of data set [4]: Thermogravimetric analysis (TGA). Type of data set: physicochemical. The note with it: crystalline form 1; in the range 31.5 to 140° C. The procedure:
Thermogravimetric Analysis (TGA)
TGA data were collected on a Mettler Toledo STARe System (TGA851e module and STAR software version 9.20) equipped with a 34-position auto-sampler. Typically, about 5 mg of a sample, in an automatically pierced aluminium pan, was heated at 10° C. min^−1, unless stated otherwise, from 30° C. to 250° C. A nitrogen purge at 10 ml min^−1 was maintained over the sample.

With `CCCCN1C[C@H](O)[C@@H](O)[C@@H](O)[C@H]1CO` [Reference Example 3, (2R,3S,4R,5S)-1-butyl-2-(hydroxymethyl)piperidine-3,4,5-triol], in data set [1], the D10 is reported as 7 μm, the D50 is reported as 22 μm and the D90 is on record as 42 μm.
With `CCCCN1C[C@H](O)[C@@H](O)[C@@H](O)[C@H]1CO` [COMPOUND, (2R,3S,4R,5S)-1-butyl-2-(hydroxymethyl)piperidine-3,4,5-triol], the Hygroscopicity entry in data set [2] is listed as “Not hygroscopic”. The “plasma levels of metabolic substrates thought to be related to the development of the disease” value in data set [3] was “marked decrease”. Also, in data set [4], the TGA mass loss result was “Mass loss of <0.1% in the range”.
In data set [1], `CCCCN1C[C@H](O)[C@@H](O)[C@@H](O)[C@H]1CO` [Example 2, (2R,3S,4R,5S)-1-butyl-2-(hydroxymethyl)piperidine-3,4,5-triol] gave a D10 of 7 μm, a D50 of 57 μm and a D90 of 138 μm.
